Results on 2 compounds are retold here after article PMC10541198, “Specific quinone reductase 2 inhibitors reduce metabolic burden and reverse Alzheimer’s disease phenotype in mice” (The Journal of Clinical Investigation, 2023).

One assay has as its system CD73. Put plainly: Immunoblot of CD73 in HCT116 cells after 4-day treatment. In kind it is cell-based, human. The note with it: 2 μM, 4 days. The procedure: To establish direct target engagement and cell membrane permeability, a cellular thermal shift assay (CETSA) was carried out, using leading QR2is YB’s-537, 800, and 808. Following a 1 hour preincubation with 5 μM of the QR2is or vehicle, thermal aggregation curves (Taggs) of QR2 expressed in HEK293T were measured in increasing temperatures. All QR2is increased QR2 thermal stability compared with vehicle (Supplemental Figure 2A). Based on the Tagg curves we selected 73°C for isothermal dose-response fingerprint (IDTRF) experiments (Supplemental Figure 2B). The ITDRF allowed the relative quantification of the binding of each of the QR2is to QR2, measured as the EC50 (Figure 3A). […] We evaluated the safety of the QR2is using cell toxicity and viability assays. […] Cell viability was assessed by XTT assay in HEK239T cells, using a dose response, with 3- or 24-hour incubations of the leading QR2is. […] We then assessed WT HCT116 cells by immunoblot (Supplemental Figure 2, C and D), after being treated with YB-800 (2 μM) for 4 consecutive days. […]
The cells wer e har ves t ed a nd resuspended in 1% cl ear m e di um ( DM EM – with no phenol red, suppl em ent ed with 1% FBS, 1% L-Glutamine and 1% Penicillin-Streptomycin). […] The plate wa s then incubated in the dark at 37°C f or 3 h, before reading in a Tecan M200 Pro florescence microplate reader, using wavelengths Ex/Em = 485 nm / 535 nm . […]

In another assay the test system is eIF2α. Put plainly: Immunoblot of total and phosphorylated eIF2α 3 hours after CA1 microinjection. The class given is in vivo, mouse. The procedure:
In order to evaluate the efficacy of some of the leading QR2is in vivo, we carried out double-blind experiments using 2 different modalities (Supplemental Methods), measuring memory that is dependent on different brain areas. First, cortical memory was tested using incidental novel taste learning (see Methods), in which an unfamiliar, but palatable and safe, taste is given for the first time, and the memory for this newly learned taste is then assessed 2 days later. This is done by measuring the volume of the taste consumed upon subsequent exposure to it ([32]) (Figure 4A). […] Next, hippocampal-dependent learning was evaluated using delay fear conditioning (DFC; see Methods) ([33]). Mice were cannulated to the CA1 region of the hippocampus and were microinjected with YB-537 (1 μL of 5 μM, Figure 4, D and H) or vehicle. […] In order to evaluate any possible effect of acute QR2i microinjection on metabolic stress in the mouse brain, ISR activation was measured by quantifying total and phosphorylated eukaryotic initiation factor 2 α (eIF2α) levels (Supplemental Figure 3A) and lipid peroxidation product, 4-hydroxynonenal (4-HNE; Supplemental Figure 3B), by immunoblot 3 hours after the injection. […]
On the technique in general: A western blot detects proteins with antibodies after separation by electrophoresis.

Several values for one entry are separate records, joined by “and”; a condition that tells them apart may be missing. Equal entries are not always repeated.

For `Cc1ccc(-c2cn3cccc(C)c3n2)cc1S(=O)(=O)N1CCC(C)CC1` [YB-800], in the assay on CD73, the “CD73 expression (replicates)” value is 1.393 and 1.4862 and 1.532 and 1.811 and 1.4595 and 1.188. Take `Cc1ccc(-c2cn3cccc(C)c3n2)cc1S(=O)(=O)N1CCNCC1` [YB-537]: the eIF2α phosphorylation levels result with eIF2α (3 hours after microinjection in the mouse hippocampus) is on record as “insignificant reduction”. Further, the “eIF2α phosphorylation, immunoblot (individual mice)” value with eIF2α (3 hours after microinjection, Sup. Fig. 3A) was 1.423 and 1.158 and 1.034 and 0.527 and 1.086 and 1.215 and 0.836.
